The target in assay [1] is phosphorylated ERBB2 (pERBB2) (Homo sapiens (Human), UniProt P04626). Put plainly: Detection of phosphorylated ERBB2 (pERBB2) by ELISA in BT-474 cells. It counts as cell-based. As to conditions: four hours incubation with compound. How it is done: BT-474 cells were seeded into a 96-well at 2.0*10^4 cells/100 μl/well. Compounds were dissolved and serially diluted in DMSO. The compounds were then were added, mixed, and incubated for four hours at 37° C., 5% CO2. […] Following the four hour incubation with compounds, cell lysates were prepared. Plates were centrifuged for 5 min at 3000 RPM, and supernatant was removed from each well. Cells were washed 3 times by resuspension in 150 μl PBS, followed by centrifugation and removal of the supernatant, as above. 100 μl of cell lysis buffer (Boston BioProducts, cat #BP-115D) supplied with 1× complete ULTRA cocktail inhibitor (Thermo ScientificTM, cat #78443) was then added to the washed cells. Cells were incubated with lysis buffer for 1 hour at 4° C., and then stored at -80° C. Enzyme-linked immunosorbent assays (ELISA) were performed to measure phosphorylated ERBB2 levels. […] The next day, plates were washed with PBS+0.05% Tween20 (PBST). 150 μl of 5% BSA blocking solution was added for 1 hour at room temperature, with shaking. Plates were washed with PB ST. Cell lysates were thawed and 100 μl of lysate was added to the ELISA plate. The plates were incubated for 2 hours at room temperature, with shaking. ELISA plates were then washed with PBST and 100 μl of an HRP-labeled detection antibody that binds phosphorylated tyrosine (R&D Systems, cat #841913) was added to each well. Plates were incubated for 1 hour at room temperature, with shaking. Plates were then washed with PBST, and 100 μl TMB substrate solution (R&D Systems, cat #DY999) was added. Plate were incubated in the dark for 20 minutes at room temperature. 50 μl of Stop solution (R&D Systems, cat #DY994) (50 μl) was added to each well and mixed. […] The remaining kinase activity by calculated using the following formula: % Relative activity=100×([…]). The low and high control values (“LC” and “HC”) were generated from lysate from wells without cells or with cells treated with 0.1% DMSO, respectively.
Sequence of phosphorylated ERBB2 (pERBB2) (P04626 23-1255): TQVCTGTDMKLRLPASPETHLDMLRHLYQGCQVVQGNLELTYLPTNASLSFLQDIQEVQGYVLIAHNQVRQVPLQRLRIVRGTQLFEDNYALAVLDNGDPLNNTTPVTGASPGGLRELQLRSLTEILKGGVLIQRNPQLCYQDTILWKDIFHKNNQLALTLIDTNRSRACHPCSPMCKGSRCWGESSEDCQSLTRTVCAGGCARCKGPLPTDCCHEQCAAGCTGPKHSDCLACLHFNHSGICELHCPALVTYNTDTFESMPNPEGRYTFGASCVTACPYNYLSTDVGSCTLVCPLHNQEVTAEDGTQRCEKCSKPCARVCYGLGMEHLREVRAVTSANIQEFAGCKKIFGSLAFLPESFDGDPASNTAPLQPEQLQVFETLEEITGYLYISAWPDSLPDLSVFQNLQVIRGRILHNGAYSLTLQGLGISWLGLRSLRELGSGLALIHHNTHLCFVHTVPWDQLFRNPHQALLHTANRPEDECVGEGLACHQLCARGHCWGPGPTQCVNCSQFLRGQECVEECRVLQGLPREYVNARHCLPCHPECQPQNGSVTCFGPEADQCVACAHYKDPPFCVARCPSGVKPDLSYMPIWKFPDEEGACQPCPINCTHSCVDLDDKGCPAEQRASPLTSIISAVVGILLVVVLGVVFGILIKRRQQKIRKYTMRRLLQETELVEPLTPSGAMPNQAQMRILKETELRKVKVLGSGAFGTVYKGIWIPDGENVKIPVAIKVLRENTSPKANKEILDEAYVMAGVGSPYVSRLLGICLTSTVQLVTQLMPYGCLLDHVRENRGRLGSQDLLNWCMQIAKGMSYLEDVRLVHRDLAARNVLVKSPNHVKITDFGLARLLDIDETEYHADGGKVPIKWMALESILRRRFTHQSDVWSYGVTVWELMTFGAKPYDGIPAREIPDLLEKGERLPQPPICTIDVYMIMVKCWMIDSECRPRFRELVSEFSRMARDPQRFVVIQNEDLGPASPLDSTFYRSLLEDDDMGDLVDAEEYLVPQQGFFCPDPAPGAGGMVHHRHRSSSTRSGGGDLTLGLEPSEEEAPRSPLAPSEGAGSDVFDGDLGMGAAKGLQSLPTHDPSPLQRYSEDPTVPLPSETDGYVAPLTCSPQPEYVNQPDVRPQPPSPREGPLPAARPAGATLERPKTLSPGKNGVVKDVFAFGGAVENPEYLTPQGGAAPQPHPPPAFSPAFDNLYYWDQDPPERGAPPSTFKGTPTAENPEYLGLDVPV

The subject of another assay is Ba/F3 ERBB2 YVMA. Put plainly: Cell viability assay (CellTiter Glo), Ba/F3 cells engineered to express ERBB2 YVMA. It counts as cell-based. As to conditions: Mus musculus, BaF3, 72 h, Ba/F3 cells expressing human ERBB2 YVMA mutant; 72 hours; cell viability, CellTiter Glo; read-out: Ba/F3 ERBB2 YVMA, IC50. As for the experimental part:
Cells were treated with compounds, and cell viability was measured as a metric of kinase inhibition.
BT-474, A431, MDA-MB-175VII, NCI-H1781, MCF7, and Ba/F3 cell lines were tested. The Ba/F3 cell line is IL-3-dependent mouse cell line derived from the C3H mouse strain. Ba/F3 cell lines were engineered to express human ERBB2 or EGFR kinases, rendering the cells IL-3 independent. The lines were generated via retroviral transduction utilizing a Moloney murine leukemia virus (MMLV) promoter, and constructs are stably integrated into the cell genome. The sequences of the ERBB2 and EGFR genes used were NCBI Reference Sequences NM 004448.3 and NM 005228.3, respectively.
BT-474, A431, MDA-MB-175VII, NCI-H1781 and MCF7 cells were grown in the appropriate growth medium as described in Table B2 below, and harvested at 50-80% confluence. BT-474, A431, MDA-MB-175VII, NCI-H1781 and MCF7 cells were counted and seeded at 2,000 or 1,500 cells per well in 384-well tissue culture plates (see Table B2). Similarly, Ba/F3 cell lines engineered to express EGFR, ERBB2, or ERBB2 mutants were grown, harvested, counted and seeded at 3000 cells per well in 96-well plates. A subset of wells contained media only (low control, “LC”).
Table B1 provides the growth media and number of cells seeded per well for the each cell line.
Compounds were dissolved in DMSO and serially diluted. Serially-diluted compound or a DMSO only control (high control, “HC”) was added to the plated cells in each well. Compounds were tested at concentrations of about 10 μM to 0.51 nM, using three-fold dilutions. The final proportion of DMSO never exceeded 0.1%.
Plates were placed in a 37° C., 5% CO2 incubator for 72 hours. Plates were then removed from the incubator and equilibrated for 15 minutes at room temperature. […] of CellTiter Glo reagent (Promega) was added to measure the relative level of metabolically active cells by quantifying intracellular ATP concentrations. Plates were incubated for 30 minutes at room temperature, and luminescence was measured. Percent viability was normalized to a vehicle control only using the following formula: % viability=100×(Lumsample−LumLC)/(LumHC−LumLC). Graphical curves were fitted using a nonlinear regression model with a sigmoidal dose response.
For orientation: ATP-based viability assays read luminescence as a measure of living cells.

SMILES strings stand for the structures.

Turning to `Cc1cc(Nc2ncnc3cc4c(nc23)N2CCCN(C(=O)/C=C/CN(C)C)C(CO4)C2)ccc1Oc1ccn2ncnc2c1` (single isomer, unassigned) [Example S55, Enantiomer 1, (E)-1-(4-((4-([1,2,4]triazolo[1,5-a]pyridin-7-yloxy)-3-methylphenyl)amino)-8,9,11,12-tetrahydro-6,11-methanopyrimido[4′,5′:5,6]pyrido[3,2-b][1,4,8]oxadiazecin-10(7H)-yl)-4-(dimethylamino)but-2-en-1-one], the IC50 in assay [1] is 17.4 nM.

As for `Cc1cc(Nc2ncnc3cc4c(nc23)N2CCCN(C(=O)/C=C/CN(C)C)C(CO4)C2)ccc1Oc1ccn2ncnc2c1` (single isomer, unassigned) [Example S55, Enantiomer 2, (E)-1-(4-((4-([1,2,4]triazolo[1,5-a]pyridin-7-yloxy)-3-methylphenyl)amino)-8,9,11,12-tetrahydro-6,11-methanopyrimido[4′,5′:5,6]pyrido[3,2-b][1,4,8]oxadiazecin-10(7H)-yl)-4-(dimethylamino)but-2-en-1-one], the IC50 in assay [1] is 304 nM.

For the molecule `CC#CC(=O)N1CCN2C[C@H]1COc1cc3ncnc(Nc4ccc(Oc5ccn6ncnc6c5)c(C)c4)c3cc12` [Compound 12, 1-((10S)-4-((4-([1,2,4]triazolo[1,5-a]pyridin-7-yloxy)-3-methylphenyl)amino)-7,8,10,11-tetrahydro-9H-6,10-methano[1,4,7]oxadiazonino[3,2-g]quinazolin-9-yl)but-2-yn-1-one], the IC50 with Ba/F3 ERBB2 YVMA worked out at 44 nM.

Consider `Cc1cc(Nc2ncnc3cc4c(nc23)N2CCN(C(=O)/C=C/[C@H](C)N(C)C)[C@H](CO4)C2)c(F)cc1Oc1ccn2ncnc2c1` [Compound 47, (4S,E)-1-((10S)-4-((4-([1,2,4]triazolo[1,5-a]pyridin-7-yloxy)-2-fluoro-5-methylphenyl)amino)-7,8,10,11-tetrahydro-9H-6,10-methanopyrimido[4′,5′:5,6]pyrido[3,2-b][1,4,7]oxadiazonin-9-yl)-4-(dimethylamino)pent-2-en-1-one], for which the IC50 in the assay with Ba/F3 ERBB2 YVMA was 13 nM.

As for `Cc1c(Oc2ccn3ncnc3c2)ccc(Nc2ncnc3cc4c(nc23)N2CCN(C(=O)/C=C/CN(C)C)[C@H](CO4)C2)c1F` [Compound 35, (E)-1-((10S)-4-((4-([1,2,4]triazolo[1,5-a]pyridin-7-yloxy)-2-fluoro-3-methylphenyl)amino)-7,8,10,11-tetrahydro-9H-6,10-methanopyrimido[4′,5′:5,6]pyrido[3,2-b][1,4,7]oxadiazonin-9-yl)-4-(dimethylamino)but-2-en-1-one], the IC50 with Ba/F3 ERBB2 YVMA came out at 1.29 nM.

In the case of `Cc1cc(Nc2ncnc3cc4c(cc23)N2CCN(C(=O)/C=C/CN(C)C)[C@@H](CO4)C2)ccc1Oc1ccn2ncnc2c1` [Compound 8, (E)-1-((10R)-4-((4-([1,2,4]triazolo[1,5-a]pyridin-7-yloxy)-3-methylphenyl)amino)-7,8,10,11-tetrahydro-9H-6,10-methano[1,4,7]oxadiazonino[3,2-g]quinazolin-9-yl)-4-(dimethylamino)but-2-en-1-one], the IC50 with Ba/F3 ERBB2 YVMA was > 500 nM.

For the molecule `Cc1cc(Nc2ncnc3cc4c(nc23)N2CCN(C(=O)/C=C/[C@H]3CCCN3C)[C@H](CO4)C2)c(F)cc1Oc1ccn2ncnc2c1` [Compound 41, (E)-1-((10S)-4-((4-([1,2,4]triazolo[1,5-a]pyridin-7-yloxy)-2-fluoro-5-methylphenyl)amino)-7,8,10,11-tetrahydro-9H-6,10-methanopyrimido[4′,5′:5,6]pyrido[3,2-b][1,4,7]oxadiazonin-9-yl)-34-((R)-1-methylpyrrolidin-2-yl)prop-2-en-1-one], the IC50 in the assay with Ba/F3 ERBB2 YVMA worked out at 8.67 nM.

Turning to `Cc1cc(Nc2ncnc3cc4c(nc23)N2CCN(C(=O)/C=C/CN(C)C)[C@H](CO4)C2)c(F)cc1Oc1cncc(F)c1` [Compound 44], the IC50 in the assay with Ba/F3 ERBB2 YVMA was 9.18 nM.

Take `Cc1cc(Nc2ncnc3cc4c(nc23)N2CCN(C(=O)/C=C/CN(C)C)[C@H](CO4)C2)ccc1Oc1ccn2ncnc2c1` [Compound 10, (E)-1-((10S)-4-((4-([1,2,4]triazolo[1,5-a]pyridin-7-yloxy)-3-methylphenyl)amino)-7,8,10,11-tetrahydro-9H-6,10-methanopyrimido[4′,5′:5,6]pyrido[3,2-b][1,4,7]oxadiazonin-9-yl)-4-(dimethylamino)but-2-en-1-one]: the IC50 with Ba/F3 ERBB2 YVMA came to 7.02 nM.

Consider `Cc1cc(Nc2ncnc3cc4c(nc23)N2CCN(C(=O)/C=C/[C@@H]3CCCN3C)[C@H](CO4)C2)ccc1Oc1ccn2ncnc2c1` [Compound 28, (E)-1-((10S)-4-((4-([1,2,4]triazolo[1,5-a]pyridin-7-yloxy)-3-methylphenyl)amino)-7,8,10,11-tetrahydro-9H-6,10-methanopyrimido[4′,5′:5,6]pyrido[3,2-b][1,4,7]oxadiazonin-9-yl)-3-((S)-1-methylpyrrolidin-2-yl)prop-2-en-1-one], for which the IC50 with Ba/F3 ERBB2 YVMA amounted to 6.84 nM.

For the molecule `Cc1cc(Nc2ncnc3cc4c(nc23)N2CCN(C(=O)/C=C/CN(C)C)[C@H](CO4)C2)ccc1Oc1cncc(F)c1` [Compound 51], the IC50 in the assay on Ba/F3 ERBB2 YVMA came to 3.37 nM.

As for `CC#CC(=O)N1CCN2C[C@H]1COc1cc3ncnc(Nc4ccc(Oc5ccc6c(c5)ncn6C)c(C)c4)c3nc12` [Compound 16, 1-((10S)-4-((3-methyl-4-((1-methyl-1H-benzo[d]imidazol-5-yl)oxy)phenyl)amino)-7,8,10,11-tetrahydro-9H-6,10-methanopyrimido[4′,5′:5,6]pyrido[3,2-b][1,4,7]oxadiazonin-9-yl)but-2-yn-1-one], the IC50 with Ba/F3 ERBB2 YVMA came to 14 nM.

For `Cc1cc(Nc2ncnc3cc4c(nc23)N2CCN(C(=O)/C=C/CN(C)C)[C@H](CO4)C2)c(F)cc1Oc1ccn2ncnc2c1` [Compound 24, (E)-1-((10S)-4-((4-([1,2,4]triazolo[1,5-a]pyridin-7-yloxy)-2-fluoro-5-methylphenyl)amino)-7,8,10,11-tetrahydro-9H-6,10-methanopyrimido[4′,5′:5,6]pyrido[3,2-b][1,4,7]oxadiazonin-9-yl)-4-(dimethylamino)but-2-en-1-one], the IC50 in the assay on Ba/F3 ERBB2 YVMA turned out to be 6.4 nM.
